For 1 substance, IC50, tumor-inhibiting effect and tumor-inhibiting activity results are on record in US7019156B2, “Tumor inhibiting gallium compounds” (Faustus Forschungs Cie. Translational Cancer Research GmbH, priority 2001, dated 2006).

Some results are limits rather than exact numbers.

What all share (assay type): cell-based
One test relates to mammary carcinomas. Description: Tumor-inhibiting activity, selectivity for tumor types.
The subject of another test is prostrate carcinomas. Described as above.
The test system of test [1] is macrocellular bronchial carcinomas. The description is as above.
The subject of test [2] is stomach carcinoma xenograft. Description: Tumor-inhibiting activity on xenograft. The following applies: compared with IC50 <0.003 mg/ml tumor types.
The test system of a further test is melanoma xenograft. The test is described as follows: Tumor-inhibiting activity on xenograft. The following applies: compared with IC50 <0.003 mg/ml tumor types.
For test [3], the system named is ovarian (OVCAR3) cell line. The test is described as follows: Tumor-inhibiting activity on cell line. The following applies: compared with IC50 <0.003 mg/ml tumor types.
Test [4] concerns parvicellular bronchial carcinoma cell line (DMS 114). Description: Tumor-inhibiting activity on cell line. Conditions: compared with IC50 <0.003 mg/ml tumor types.
The subject of test [5] is renal-cell carcinoma xenografts. Description: Tumor-inhibiting activity on xenografts. Conditions: one of two renal-cell carcinoma xenografts.

“bis(2-acetylpyridine-4,4-dimethyl thiosemicarbazonato-N1, N2,S)gallium(III) tetrachlorogallate(III)”: the IC50 (in the test on mammary carcinomas; in the test with prostrate carcinomas; in test [1]) was below 3 µg/mL each time. Besides, the tumor-inhibiting effect result (in test [2]; in the test on melanoma xenograft; in test [3]; in test [4]) was “Comparable effects” each time. The tumor-inhibiting activity result in test [5] is “above-average activity”.

As a reminder, the IC50 is the concentration at which inhibition is half-maximal.
